# Reference: patent publication US5968791A, “Plant lysophosphatidic acid acyltransferases” (Calgene, Inc., priority 1995, dated 1999)
# T1: coconut medium-chain LPAAT (Cocos nucifera, UniProt Q42670)
# T1 construct: The frozen coconut P2 preparation is thawed and diluted in a volume of P2 Buffer; from tissue; host or cells: immature coconut endosperm, solubilized S3 supernatant of P2 membranes
# T1 sequence (Q42670 1-308): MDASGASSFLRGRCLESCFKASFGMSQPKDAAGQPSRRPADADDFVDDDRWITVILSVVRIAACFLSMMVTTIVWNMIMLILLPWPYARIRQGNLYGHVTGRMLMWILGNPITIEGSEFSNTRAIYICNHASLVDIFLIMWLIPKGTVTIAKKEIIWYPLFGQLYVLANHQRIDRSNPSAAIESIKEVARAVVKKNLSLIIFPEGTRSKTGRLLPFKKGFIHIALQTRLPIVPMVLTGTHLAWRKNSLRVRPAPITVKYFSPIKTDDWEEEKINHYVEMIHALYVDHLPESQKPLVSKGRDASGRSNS
# T2: coconut LPAAT (Cocos nucifera, UniProt Q42670)
# T2 sequence (Q42670 1-308): T1 sequence (Q42670 1-308)
# B1: 18:1-ACP: 18:1 acyl-ACP tested as LPAAT donor substrate (conjugate, UniProt P0A6A8 2-78, looked up)
# Acyl carrier protein: STIEERVKKIIGEQLGVKQEEVTNNASFVEDLGADSLDTVELVMALEEEFDTEIPDEEAEKITTVQAAIDYINGHQA
# modifications: 18:1 acyl thioester
# notes: 18:1 acyl-ACP tested as LPAAT donor substrate
# Key:
# [1] = test system: bay LPAAT; assay: LPAAT activity assay, California bay P2 membrane preparation; type: biochemical, Umbellularia californica; settings: for detergent concentration in the assay that inhibits long-chain LPAAT activity completely: 18:1-CoA and 18:1-LPA, concentrations w/v; for detergent concentration tolerated without complete loss of activity: 1-hour exposure, diluted prior to assay
# Experimental: To assay for LPAAT activity, the sample is incubated with lysophosphatidic acid (LPA) and acyl-coenzyme A (acyl-CoA) substrates in buffered solution. The acyl substituents of the two substrates are chosen to correspond with the specificity of the enzyme being measured. […] The acyl group of one substrate is radioactively labeled in order to detect the product formed. In the examples which follow the acyl substituent of the acyl-CoA substrate is radiolabeled with ^14 C in the carboxyl group. LPAAT activity results in transfer of this acyl group from the acyl-CoA "donor" substrate to the LPA "acceptor" substrate, converting the latter into the product, phosphatidic acid (PA). LPAAT activity is measured as the amount of radioactive product formed in a given assay time. The PA product is radioactive as a result of the transferred radiolabeled acyl group at the central carbon atom of the molecule, and the quantity of PA formed may be determined by measuring radioactivity of the PA fraction. For this measurement, the PA is first separated from the acyl-CoA substrate by solvent partitioning, or by thin-layer chromatography (TLC).
# [2] = test system: Rapeseed LPAAT; assay: LPAAT activity assay, rapeseed P2 membrane preparation; type: biochemical, Brassica napus; settings: acyl-CoA donor varied, acceptor 12:0-LPA
# Experimental: (§1) To assay for LPAAT activity, the sample is incubated with lysophosphatidic acid (LPA) and acyl-coenzyme A (acyl-CoA) substrates in buffered solution. The acyl substituents of the two substrates are chosen to correspond with the specificity of the enzyme being measured. For example, to measure activity of an LPAAT having preference for medium-chain substrates, lauroyl-LPA (lauroyl-lysophosphatidic acid) and lauroyl-CoA may be used, to measure activity of an LPAAT preferring longer-chain acyl groups, oleoyl-LPA and oleoyl-CoA may be used, to measure activity of an LPAAT preferring very-long chain substrate, erucyl-LPA and erucyl-CoA may be used, and so on, depending upon the type of LPAAT to be tested. The acyl group of one substrate is radioactively labeled in order to detect the product formed. In the examples which follow the acyl substituent of the acyl-CoA substrate is radiolabeled with ^14 C in the carboxyl group. LPAAT activity results in transfer of this acyl group from the acyl-CoA "donor" substrate to the LPA "acceptor" substrate, converting the latter into the product, phosphatidic acid (PA). LPAAT activity is measured as the amount of radioactive product formed in a given assay time. The PA product is radioactive as a result of the transferred radiolabeled acyl group at the central carbon atom of the molecule, and the quantity of PA formed may be determined by measuring radioactivity of the PA fraction. For this measurement, the PA is first separated from the acyl-CoA substrate by solvent partitioning, or by thin-layer chromatography (TLC).
# (§2) 20 μl of the sample to be assayed for LPAAT activity is mixed with 217.5 μl of an assay ingredient mixture in a 4-ml, screw-cap vial. […] The incubation takes place in a water bath at 30° C., for 20-30 minutes.
# (§3) To stop the assay, 0.25 ml of 1M KCl in 0.2M H3 PO4 is added to the vial. At this point, 40 μl BSA (bovine serum albumin, fraction V) at 1 mg/ml are added, followed by 0.75 ml of a solution of 67 μg/ml unlabeled PA (acting as a "carrier" to facilitate partitioning) in chloroform/methanol (2:1, v/v). The chain lengths of the PA acyl groups are chosen to correspond to those used in the assay substrates. Upon thorough mixing of these components the radiolabeled PA product of the LPAAT reaction partitions into the organic phase and away from the unreacted acyl-CoA and LPA. The vial is centrifuged briefly at low speed to facilitate the separation of organic (lower) and aqueous (upper) phases. The aqueous phase is then removed and discarded. The total radioactivity extracted into the organic phase is determined by liquid scintillation counting; a 100 μl sample of the organic phase is transferred to a 20 ml scintillation vial and allowed to dry, and scintillation fluid (3-5 ml) is added to the vial. The radioactivity of the sample, after subtraction of the "minus-enzyme" or "minus-LPA" radioactivities, is taken as an approximate indication of the amount of PA formed in the LPAAT-catalyzed reaction and therefore of LPAAT activity.
# A more accurate estimation of the LPAAT activity may be obtained by separating the PA product from these contaminants by TLC. The remaining organic phase is applied to a silica TLC plate. […] After the plate has dried, the distribution of radioactivity is visualized and quantitated using an AMBIS radioanalytic imaging system (AMBIS Systems Inc., San Diego, Calif.). From prior application of standard lipid components the Rf of the PA is known. The radioactivity associated with the PA spot is expressed as a percentage of the total radioactivity of the assay sample loaded on the plate. This ratio provides an indication of the proportion of the scintillation counts which represent the PA product, and may be used to correct the counts to obtain the total PA radioactivity formed in the assay.
# A P2 membrane homogenate from immature embryos of developing rapeseed (Brassica napus) seeds is prepared essentially as described above, except as noted below.
# [3] = biological target: T1, coconut medium-chain LPAAT; assay: Assay of solubilized coconut LPAAT (S3 preparation) with phospholipid activation; type: biochemical; settings: for effect on LPAAT activity of the coconut S3 preparation: added at 1 mM; for reduction of LPAAT activity of the coconut S3 preparation: added at 10 mM
# Experimental: After solubilization of LPAAT protein from plant membranes as described below, modification of the above assay conditions is required in order to detect maximum LPAAT activity. This is especially important after the solubilized LPAAT has been chromatographed on at least one column. The important modification to the assay is the addition, at the start of the assay procedure, of 1 μl of a concentrated phospholipid (PL) solution to 20 μl of the LPAAT-containing sample in a glass vial. The high concentrations of CHAPS (at least 1% w/v) and NaCl (typically 0.5M or greater) in the solubilized LPAAT preparation aid in dispersal of the phospholipids. The phospholipid solution is obtained by sonicating crude soybean phospholipids (L-phosphatidylcholine from soybean, "Type IVs" obtained from Sigma Chemical Company, St. Louis) at 50 mg/ml in 0.5% (w/v) CHAPS (3-[(3-cholamidopropyl) -dimethylammonio]-1-propane-sulfonate) until a uniform suspension is obtained.
# The remaining assay ingredients (as described above), with the exception of the acyl-CoA substrate, are then added as 219 μl of a mixture. […] Radiolabeled acyl-CoA (10 μl, or an appropriately adjusted volume as indicated above) is added to start the LPAAT-catalyzed reaction and the rest of the assay procedure is completed as described above.
# All steps are carried out at 0-4° C. The frozen coconut P2 preparation is thawed and diluted in a volume of P2 Buffer to achieve a protein concentration of 0.94 mg/ml P2 protein. Protein concentration is determined by Coomassie dye staining relative to a bovine serum albumin standard. The P2 membrane suspension is then diluted with an equal volume of Solubilization Buffer (50 mM HEPES-NaOH, pH 7.5, […], 20% (w/v) glycerol, 4.5% (w/v) CHAPS, 100 μM Pefabloc, 1 μM leupeptin, 1 μM Pepstatin A, and 5 mM β-ME), resulting in final concentrations of 1M NaCl, 2.25% (w/v) detergent, and 0.47 mg/ml protein. These component concentrations, and the resulting detergent/protein ratio of 48/1 (w/w), are important for optimal solubilization. The preparation is then incubated on ice for 30 minutes with occasional, gentle stirring, followed by centrifugation at 252,000×g for 2 hours. The resulting supernatant fraction (S3) is filtered through buffer-wetted Miracloth, and may then be stored frozen (-70) with only slight loss of activity. Optimally, it is applied to chromatography columns without an intervening freeze-thaw cycle.
# Assay of the coconut medium-chain LPAAT activity after solubilization (S3 preparation) and reactivation with PLs, using different acyl-CoA substrates, provides the following results (Table 3). In all these assays the acceptor substrate is 12:0-LPA.
# [4] = biological target: T2, coconut LPAAT; assay: LPAAT activity assay, coconut P2 membrane preparation; type: biochemical; set-up: white endosperm tissue lining the inside of the endocarp can be dissected and collected; from tissue; host or cells: immature coconut endosperm, P2 membrane fraction; settings: for effect on medium-chain LPAAT activity: coconut P2
# Experimental: as §1, §2, §3
# A more accurate estimation of the LPAAT activity may be obtained by separating the PA product from these contaminants by TLC. The remaining organic phase is applied to a silica TLC plate. Ascending chromatography is carried out for 50 minutes, using the solvent mixture chloroform/pyridine/88% formic acid (50:30:7, v/v). After the plate has dried, the distribution of radioactivity is visualized and quantitated using an AMBIS radioanalytic imaging system (AMBIS Systems Inc., San Diego, Calif.). From prior application of standard lipid components the Rf of the PA is known. The radioactivity associated with the PA spot is expressed as a percentage of the total radioactivity of the assay sample loaded on the plate. This ratio provides an indication of the proportion of the scintillation counts which represent the PA product, and may be used to correct the counts to obtain the total PA radioactivity formed in the assay. […]
# [5] = P2 membrane preparation, acyl-CoA donor varied, acceptor 12:0-LPA
molecule,measurement,setting,value
CCCCCC(=O)SCCNC(=O)CCNC(=O)[C@H](O)C(C)(C)COP(=O)(O)OP(=O)(O)OC[C@H]1O[C@@H](n2cnc3c(N)ncnc32)[C@H](O)[C@@H]1OP(=O)(O)O [6:0],LPAAT Activity from Bay,[1]; [5],1 pmol PA formed/30 min assay
same,LPAAT Activity from Rapeseed,[2],0 pmol PA formed/30 min assay
same,"LPAAT Activity, solubilized coconut LPAAT","[3]; radioactivity of PA product resolved on TLC, after 30 min assay, S3 reactivated with PLs, acceptor 12:0-LPA",1 cpm
same,LPAAT Activity from Coconut,[4]; [5],3 pmol PA formed/30 min assay
"C[C@H](CCC(=O)NCCC[N+](C)(C)CCCS(=O)(=O)[O-])[C@H]1CC[C@H]2[C@@H]3[C@H](O)C[C@@H]4C[C@H](O)CC[C@]4(C)[C@H]3C[C@H](O)[C@]12C [CHAPS, 3-[(3-cholamidopropyl) -dimethylammonio]-1-propane-sulfonate]",concentration above which inhibitory in the medium-chain LPAAT assay,[4]; coconut medium-chain LPAAT assay,above 0.1 % (w/v)
same,inhibition at 5000 µg/mL,[4]; read-out: LPAAT activity loss,50%
[Ca+2] [Ca^2+],effect on LPAAT activity of the coconut S3 preparation,[3],without significant effect
same,reduction of LPAAT activity of the coconut S3 preparation,[3],≥ 50%
CC(C)(COP(=O)(O)OP(=O)(O)OC[C@H]1O[C@@H](n2cnc3c(N)ncnc32)[C@H](O)[C@@H]1OP(=O)(O)O)[C@@H](O)C(=O)NCCC(=O)NCCS [CoA],effect on medium-chain LPAAT activity,[4]; 0.1 mM in the assay system,unaffected
[Mg+2] [Mg^2+],effect on LPAAT activity of the coconut S3 preparation,[3],without significant effect
same,reduction of LPAAT activity of the coconut S3 preparation,[3],≥ 50%
[Mn+2] [Mn^2+],effect on LPAAT activity of the coconut S3 preparation,[3],without significant effect
same,reduction of LPAAT activity of the coconut S3 preparation,[3],≥ 50%
"CCCCCCCCCCCCOS(=O)(=O)[O-].[Na+] [SDS, sodium dodecyl sulfate]",detergent concentration in the assay that inhibits long-chain LPAAT activity completely,[1]; bay P2 preparation,0.002%
CCCCCCCCCCCCCC[N+](C)(C)CCCS(=O)(=O)[O-] [Zwittergent 3-14],detergent concentration in the assay that inhibits long-chain LPAAT activity completely,[1]; bay P2 preparation,0.005%
Nc1ncnc2c1ncn2[C@@H]1O[C@H](COP(=O)(O)OP(=O)(O)OP(=O)(O)O)[C@@H](O)[C@H]1O [adenosine-5'-triphosphate],effect on medium-chain LPAAT activity,[4]; 2 mM in the assay system,unaffected
CCCCCCCCO[C@@H]1O[C@H](CO)[C@@H](O)[C@H](O)[C@H]1O [octyl glucoside],detergent concentration tolerated without complete loss of activity,[1]; bay P2 preparation,0.5%
same,detergent concentration in the assay that inhibits long-chain LPAAT activity completely,[1]; bay P2 preparation,0.1%
C[C@H](CCC(=O)O)[C@H]1CC[C@H]2[C@@H]3CC[C@@H]4C[C@H](O)CC[C@]4(C)[C@H]3C[C@H](O)[C@]12C [sodium deoxycholate],detergent concentration in the assay that inhibits long-chain LPAAT activity completely,[1]; bay P2 preparation,0.1%
Triton X100,detergent concentration tolerated without complete loss of activity,[1]; bay P2 preparation,0.1%
same,detergent concentration in the assay that inhibits long-chain LPAAT activity completely,[1]; bay P2 preparation,0.03%
Tween 20,detergent concentration tolerated without complete loss of activity,[1]; bay P2 preparation,2.5%
same,detergent concentration in the assay that inhibits long-chain LPAAT activity completely,[1]; bay P2 preparation,1%
lysophosphatidylcholine,effect on medium-chain LPAAT activity,[4]; 60 μM in the assay system,unaffected
B1,utilization as LPAAT donor substrate instead of 18:1-CoA,[1]; bay P2 preparation,will not significantly utilize
